Results: article PMC3520070 (Journal of medicinal chemistry, 2011)
“Also recorded” adds a separate entry of the source.

Assays:
[1] = test system: cIAP1, procaspase-8 and PARP in MDA-MB-231 xenograft tissues; experiment: In vivo pharmacodynamics in MDA-MB-231 xenograft tissues; design: species or system SCID mice
[2] = test system: MDA-MB-231 xenograft tumors; experiment: In vivo antitumor efficacy, MDA-MB-231 xenograft model
[3] = test system: caspase-3 and PARP in MDA-MB-231 cancer cells; experiment: Western blot of caspase-3 activation and PARP cleavage, MDA-MB-231; format: cell-based, human; conditions: 1.5 μM, in as little as 12 hr
Tolerability in dogs = format: in vivo; conditions: IND-enabling studies, data not shown
[4] = test system: Primary human normal prostate epithelial cells; experiment: Trypan blue cell death assay, primary prostate epithelial cells; format: cell-based; conditions: concentrations as high as 10 μM, 48 hours
[5] = Pharmacokinetics in plasma of SCID mice bearing MDA-MB-231 tumors; conditions: mouse, in vivo
[6] = Toxicity evaluation in mice; format: in vivo; conditions: 200 mg/kg, daily for 5 days a week for 2–3 weeks via oral gavage
XIAP BIR3 protein [7] = biological target: T1, XIAP BIR3 protein (Homo sapiens, UniProt P98170); experiment: Cell-free functional assay against XIAP BIR3; format: biochemical; conditions: 1 μM compound, 500 nM XIAP BIR3, MDA-MB-231 cell lysates
T1 sequence (P98170 241-356): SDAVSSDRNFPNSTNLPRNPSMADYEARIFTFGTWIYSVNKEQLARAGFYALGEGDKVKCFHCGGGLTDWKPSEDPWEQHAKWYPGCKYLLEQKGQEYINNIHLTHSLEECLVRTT

[8] = Pharmacokinetics in non-human primates; format: in vivo, cynomolgus monkeys; conditions: cynomolgus monkey, plasma, po, 5 mg/kg
[9] = test system: more than 100 human cancer cell lines; experiment: Screening against more than 100 human cancer cell lines; format: cell-based
cIAP1 = cIAP1 (Homo sapiens, UniProt Q13490); experiment: cIAP1 degradation in MDA-MB-231 cells; format: cell-based
Sequence of cIAP1 (Q13490 whole entry): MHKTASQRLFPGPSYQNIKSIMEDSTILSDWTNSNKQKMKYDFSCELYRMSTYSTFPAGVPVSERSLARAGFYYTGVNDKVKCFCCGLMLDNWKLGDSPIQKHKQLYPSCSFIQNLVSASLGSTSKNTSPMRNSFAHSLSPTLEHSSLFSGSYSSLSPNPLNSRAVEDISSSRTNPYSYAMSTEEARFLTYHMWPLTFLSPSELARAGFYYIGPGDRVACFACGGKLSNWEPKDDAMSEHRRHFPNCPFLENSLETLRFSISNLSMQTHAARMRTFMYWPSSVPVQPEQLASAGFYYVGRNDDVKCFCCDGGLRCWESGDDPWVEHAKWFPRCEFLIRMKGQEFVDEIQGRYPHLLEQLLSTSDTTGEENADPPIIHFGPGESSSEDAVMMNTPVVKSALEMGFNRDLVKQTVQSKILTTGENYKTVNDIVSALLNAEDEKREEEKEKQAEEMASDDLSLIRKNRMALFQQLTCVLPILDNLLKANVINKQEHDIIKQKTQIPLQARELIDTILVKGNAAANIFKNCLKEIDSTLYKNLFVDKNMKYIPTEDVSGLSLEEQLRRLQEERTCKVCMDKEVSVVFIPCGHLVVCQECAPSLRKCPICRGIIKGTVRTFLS

XIAP BIR3 protein [10] = biological target: T1, XIAP BIR3 protein; experiment: Competitive fluorescence-polarization binding assay, XIAP BIR3; conditions: XIAP BIR3, cIAP1 BIR3 and cIAP2 BIR3
[11] = Pharmacokinetics in MDA-MB-231 tumor tissues of SCID mice; format: in vivo; conditions: for Cmax: SCID, mouse, in vivo
Metabolic stability = format: in vitro ADME; conditions: IND-enabling studies, data not shown
[12] = test system: normal-like human breast epithelial MCF-12F cells; experiment: Trypan blue cell death assay, MCF-12F; format: cell-based; conditions: concentrations as high as 10 μM, 48 hours
MDA-MB-231 cancer cells = experiment: Trypan blue cell death assay, MDA-MB-231; format: cell-based, human; conditions: 1 μM for 24 hours
Pharmacokinetics in dogs = format: in vivo; conditions: beagle, dog, po, 10 mg/kg
[13] = 7.5 mg/kg intravenously, 24-h time-point

In the case of `CC(=O)O[C@@]12CO[C@@H]1C[C@H](O)[C@@]1(C)C(=O)[C@H](O)C3=C(C)[C@@H](OC(=O)[C@H](O)[C@@H](NC(=O)OC(C)(C)C)c4ccccc4)C[C@@](O)([C@@H](OC(=O)c4ccccc4)[C@H]21)C3(C)C.O.O.O` [TXT, reference compound], the “PARP cleavage in tumor tissues” value [1, 13] is reported as “minimal effect”, the “cIAP1 degradation in tumor tissues” value [1, 13] is reported as “minimal effect” and the “processing of procaspase-8 in tumor tissues” value [1, 13] is reported as “induces the processing of procaspase-8”. For the same compound, the antitumor activity ([2]; 7.5 mg/kg intravenously, once a week for 2 weeks) was “strong antitumor activity”.
In the case of `CN[C@@H](C)C(=O)N[C@H]1CN(C(=O)CC(C)C)CC[C@H]2CC[C@@H](C(=O)NC(c3ccccc3)c3ccccc3)N2C1=O` [compound 2, (5S,8S,10aR)-N-benzhydryl-5-((S)-2-(methylamino)propanamido)-3-(3-methylbutanoyl)-6-oxodeca-hydropyrrolo[1,2-a][1,5]diazocine-8-carboxamide], the “activation of caspase-3 and cleavage of PARP” value [3] is reported as “robust activation of caspase-3 and cleavage of PARP”, the “processing of procaspase-8 in tumor tissues” value ([1]; single oral dose 100 mg/kg, 2-hr and 6-hr time-points) is reported as “effectively induces processing of procaspase-8” and the “PARP cleavage in tumor tissues” value ([1]; single oral dose 100 mg/kg, at 2 hr, maximum at 6 hr, still evident after 16 hr) is reported as “cleavage of the apoptosis marker, PARP”. For the same compound, the “cIAP1 degradation in tumor tissues” value ([1]; single oral dose 100 mg/kg, at the 2-hr time-point, persists for 16 hr) was “effectively induced cIAP1 degradation”, the tolerability in dogs (Tolerability in dogs) was “well tolerated” and the “toxicity (cell death) against normal cells” value [4] was “minimal toxicity”. It also gave a Cmax ([5]; iv, 10 mg/kg) of 5 µM, a Cmax ([5]; po, 10 mg/kg) of 1.5 µM and a Cmax ([5]; po, 30 mg/kg) of 2 µM. For the same compound, the Cmax ([5]; po, 100 mg/kg) was 9.9 µM, the tolerability [6] was “well tolerated” and the “antagonism of XIAP BIR3 and restoration of caspase-9 activity” value (XIAP BIR3 protein [7]) was “completely antagonizes XIAP and restores the activity of caspase-9”. For the same compound, the antitumor activity ([2]; 10 mg/kg oral gavage daily, 5 days a week for 2 weeks) was “no significant antitumor activity”, the toxicity to animals ([2]; oral dosing, MDA-MB-231 xenograft model in mice) was “minimal toxicity; also recorded: no signs of toxicity” and the Cmax [8] was about 4 µM. The “share of cell lines in which cell growth is effectively inhibited” value [9] was “approximately 15%”, the cIAP1 degradation (cIAP1; 100 nM for 15 min) was “complete degradation” and the “induction of cIAP1 degradation” value (cIAP1; at concentrations as low as 10 nM) was “effectively induces cIAP1 degradation”. The “times higher affinities than the Smac AVPI peptide” value (XIAP BIR3 protein [10]) was 50–100 times, the tumor tissue penetration ([11]; SCID mice bearing MDA-MB-231 tumors) was “excellent tumor tissue penetration” and the Cmax ([11]; iv, 10 mg/kg) was 6 µM. It also gave a Cmax ([11]; po, 10 mg/kg) of 0.5 µM, a Cmax ([11]; po, 30 mg/kg) of 3.9 µM and a Cmax ([11]; po, 100 mg/kg) of 18.2 µM. The metabolic stability (Metabolic stability) was “good metabolic stability”, the “toxicity (cell death) against normal-like cells” value [12] was “minimal toxicity” and the “cells that underwent cell death” value (MDA-MB-231 cancer cells) was “More than 50%”. The AUC (Pharmacokinetics in dogs; in vivo) was 198 µg·h/mL and the Cmax (Pharmacokinetics in dogs; plasma) was 17 µM.
